From patent publication US20260184807A1, “Methods for Treating Rheumatoid Arthritis Using a Syndecan-1 Inhibitor or Syntenin-1 Inhibitor” (The United States Government as represented by the …, priority 2022, published 2026)

System: RA FLS
Assay: RA FLS scratch assay
Assay type: cell-based, human
Settings: Syntenin-1 1000 ng/ml 24 h; SDC1-Ab 1:100, mTORi 1 μM, HIF1αi 2 μM; FIGS. 16J-K
Procedure: RA STs were fluorescently stained to authenticate the colocalization of Mitofusin (MFN2) (FIGS. 16A-B) and DRP1 (FIGS. 16C-D) expression on Vimentin^+ FLS in the presence or absence of DAPI, (n=3, original magnification×60 or 500). RA FLS were treated with Syntenin-1 (1000 ng/ml) for 0-60 min to detect Mitofusin-2 and DRP1 expression (FIG. 16E, n=3) and actin served as equal loading, (n=3). RA FLS were treated with Syntenin-1 (1000 ng/ml) in the presence or absence of HIF1αi (2 μM) for 6 h to determine transcription of IL-1β (FIG. 16F, n=6), IL-6 (FIG. 16G, n=5), IL-8 (FIG. 16H, n=5) and CCL2 (I, n=6) by real-time RT-PCR. […] The number of cells in the scratch area was counted and compared to the untreated control, (K, n=4). RA FLS were treated with PBS or Syntenin-1 (1000 ng/ml) in the presence or absence of SDC-1 Ab (SDCab: 1:100), IL-5R Ab (IL5Ra; 2 μg/ml), or PDZli (PDZ1; 10 μM), and/or HIF1αi (2 μM) or mTORi ([…]) for 6 h before quantifying transcription levels of VEGF (FIG. 16L, n=5) and Notch1, FGF2, CXCL1, CXCL5 (FIG. 16K or 16M, n=8 or 7). Data are presented as mean±SEM; significant differences were determined by the Mann-Whitney test, 2way ANOVA, or one-way ANOVA. *p<0.05, **p<0.01, ***p<0.001, ****p<0.0001.
RA FLS and HUVEC scratch assay. […] The number of cells in the scratch area was counted and compared to the untreated control.

CO[C@H]1C[C@@H]2CC[C@@H](C)[C@@](O)(O2)C(=O)C(=O)N2CCCC[C@H]2C(=O)O[C@H]([C@H](C)C[C@@H]2CC[C@@H](OCCO)[C@H](OC)C2)CC(=O)[C@H](C)/C=C(\C)[C@@H](O)[C@@H](OC)C(=O)[C@H](C)C[C@H](C)/C=C/C=C/C=C/1C [mTORi, Everolimus]
Syntenin-1-driven RA FLS migration: intercepted
